Active and inactive are the calls of the source. No cut-off for these calls is given here.
Columns and labels:
[1] = target: T1, Free fatty acid receptor 1 (Homo sapiens, UniProt O14842); test: Agonist activity at GPR40 (unknown origin) expressed in CHO cells co-expressing luc2P/CRE (Gs) assessed as firefly luciferase activity at 10 uM incubated for 24 hrs by Bright-Glo based […] luciferase reporter assay; assay type: functional, cell-based
MIN6 [2] = test: Cytotoxicity in mouse MIN6 cells assessed as caspase 3/7 activity at 100 uM incubated for 72 hrs by fluorescence assay; assay type: cell-based; details: min6, 72 h
[3] = AUC (0 to t) in CD-1 mouse at 10 mg/kg, po measured up to 8 hrs by LC-MS/MS analysis; assay type: ADME, organism-based; design: route oral, dose 10 mg/kg, time <=8; details: in vivo
[4] = Tmax in CD-1 mouse at 30 mg/kg, po measured up to 8 hrs by LC-MS/MS analysis; assay type: ADME, organism-based; details: in vivo
[5] = target: T2, Peroxisome proliferator-activated receptor gamma (Homo sapiens, UniProt P37231); test: Agonist activity at human PPARgamma expressed in CHO cells assessed as increase in receptor transcriptional activity incubated for 24 hrs by dual luciferase reporter gene assay; assay type: cell-based
T2 sequence (P37231 whole entry): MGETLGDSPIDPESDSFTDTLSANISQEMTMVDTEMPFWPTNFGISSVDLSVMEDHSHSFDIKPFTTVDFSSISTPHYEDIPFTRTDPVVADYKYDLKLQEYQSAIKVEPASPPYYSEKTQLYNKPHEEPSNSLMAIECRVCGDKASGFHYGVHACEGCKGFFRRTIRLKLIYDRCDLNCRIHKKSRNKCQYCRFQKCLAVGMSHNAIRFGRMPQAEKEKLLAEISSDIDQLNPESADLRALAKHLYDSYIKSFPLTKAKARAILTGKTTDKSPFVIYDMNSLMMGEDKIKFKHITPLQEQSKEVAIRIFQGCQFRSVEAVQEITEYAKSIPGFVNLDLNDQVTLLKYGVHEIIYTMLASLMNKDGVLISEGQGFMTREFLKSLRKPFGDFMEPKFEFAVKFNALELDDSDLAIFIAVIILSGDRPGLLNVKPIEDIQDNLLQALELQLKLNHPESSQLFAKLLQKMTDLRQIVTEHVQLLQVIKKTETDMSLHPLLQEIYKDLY

[6] = Metabolic stability in mouse liver microsomes assessed as intrinsic clearance; assay type: ADME, Microsome; details: read-out: CLH
[7] = target: T3, Free fatty acid receptor 4 (Homo sapiens, UniProt Q5NUL3); test: Agonist activity at FFAR4 (unknown origin); assay type: functional
T3 sequence (Q5NUL3 whole entry): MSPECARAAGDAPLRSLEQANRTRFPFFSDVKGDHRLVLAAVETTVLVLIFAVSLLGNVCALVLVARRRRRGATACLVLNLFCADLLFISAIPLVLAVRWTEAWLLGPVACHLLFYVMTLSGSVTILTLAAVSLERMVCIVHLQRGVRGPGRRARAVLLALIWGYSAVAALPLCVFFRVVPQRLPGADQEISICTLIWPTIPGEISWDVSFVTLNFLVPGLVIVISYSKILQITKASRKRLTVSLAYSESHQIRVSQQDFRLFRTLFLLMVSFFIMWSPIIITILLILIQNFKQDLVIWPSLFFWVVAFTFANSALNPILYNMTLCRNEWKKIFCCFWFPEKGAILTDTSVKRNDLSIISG

STC1 = test: Induction of GLP-1 secretion in […] STC1 cells at 30 uM after 1 hrs by ELISA; assay type: functional, cell-based
[8] = Tmax in CD-1 mouse at 100 mg/kg, po measured up to 8 hrs by LC-MS/MS analysis; assay type: ADME, organism-based; details: in vivo
[9] = target: Free fatty acid receptor 1 (Mus musculus) (UniProt Q76JU9); test: Agonist activity at GPR40 in mouse MIN6 cells assessed as fold increase in 3 mM glucose-mediated insulin secretion at 10 uM incubated for 2 hrs by ELISA relative to control; assay type: functional, cell-based
Free fatty acid receptor 1 (Mus musculus), sequence (Q76JU9 whole entry): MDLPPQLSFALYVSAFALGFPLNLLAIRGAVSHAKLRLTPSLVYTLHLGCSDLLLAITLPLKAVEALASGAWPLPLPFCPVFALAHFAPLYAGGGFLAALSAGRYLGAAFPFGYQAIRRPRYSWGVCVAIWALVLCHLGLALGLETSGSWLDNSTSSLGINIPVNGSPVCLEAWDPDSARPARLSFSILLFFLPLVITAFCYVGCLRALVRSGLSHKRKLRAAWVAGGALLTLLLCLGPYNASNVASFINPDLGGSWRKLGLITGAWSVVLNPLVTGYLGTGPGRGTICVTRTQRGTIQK

[10] = Half life in CD-1 mouse at 30 mg/kg, po measured up to 8 hrs by LC-MS/MS analysis; assay type: ADME, organism-based; details: in vivo
[11] = target: Free fatty acid receptor 1 (Mus musculus) (UniProt Q76JU9); test: Agonist activity at GPR40 in mouse MIN6 cells assessed as fold increase in 17 mM glucose-mediated insulin secretion at 1 to 10 uM incubated for 2 hrs in presence of GW1100 by ELISA relative to control; assay type: functional, cell-based; details: dose 1-10 µM
[12] = target: T1, Free fatty acid receptor 1; test: Agonist activity at GPR40 (unknown origin) expressed in CHO cells co-expressing luc2P/SRE assessed as induction of DHA-induced firefly luciferase activity incubated for 24 hrs by Bright-Glo based serum response element (SRE) luciferase reporter assay; assay type: functional, cell-based; details: filed as positive allosteric modulator
[13] = AUC (0 to t) in CD-1 mouse at 30 mg/kg, po measured up to 8 hrs by LC-MS/MS analysis; assay type: ADME, organism-based; design: route oral, dose 30 mg/kg, time <=8; details: in vivo
[14] = MRTlast in CD-1 mouse at 30 mg/kg, po measured up to 8 hrs by LC-MS/MS analysis; assay type: ADME, organism-based; details: in vivo
Mus musculus = test: Antidiabetic activity in C57BL/6J mouse assessed as reduction in plasma glucose level at 30 mg/kg, po pretreated 1 hr before glucose challenge measured up to 120 mins by Oral glucose tolerance test; assay type: functional; design: scale not given: the % may be the effect or the level left; details: 2 h
[15] = Half life in CD-1 mouse at 90 mg/kg, po measured up to 8 hrs by LC-MS/MS analysis; assay type: ADME, organism-based; details: in vivo
[16] = Half life in CD-1 mouse at 10 mg/kg, po measured up to 8 hrs by LC-MS/MS analysis; assay type: ADME, organism-based; details: in vivo
[17] = MRTlast in CD-1 mouse at 90 mg/kg, po measured up to 8 hrs by LC-MS/MS analysis; assay type: ADME, organism-based; details: in vivo
[18] = Tlast in CD-1 mouse at 30 mg/kg, po measured up to 8 hrs by LC-MS/MS analysis; assay type: ADME, organism-based; details: in vivo
MIN6 [19] = test: Effect on BSA-PA conjugate-induced lipo-toxicity in mouse MIN6 cells assessed as caspase 3/7 activity at 50 uM incubated for 72 hrs by fluorescence assay; assay type: functional, cell-based
[20] = Clast in CD-1 mouse at 10 mg/kg, po measured up to 8 hrs by LC-MS/MS analysis; assay type: ADME, organism-based; details: in vivo, read-out: Clast
[21] = target: T1, Free fatty acid receptor 1; test: Agonist activity at GPR40 (unknown origin) expressed in CHO cells co-expressing luc2P/SRE assessed as firefly luciferase activity at 10 uM incubated for 24 hrs hrs by Bright-Glo based serum response element (SRE) luciferase reporter assay relative to TAK875; assay type: functional, cell-based; details: filed as positive allosteric modulator
[22] = Cmax in CD-1 mouse at 30 mg/kg, po measured up to 8 hrs by LC-MS/MS analysis; assay type: ADME, organism-based; design: route oral, dose 30 mg/kg, time <=8; details: in vivo
[23] = Tmax in CD-1 mouse at 10 mg/kg, po measured up to 8 hrs by LC-MS/MS analysis; assay type: ADME, organism-based; details: in vivo
[24] = Tlast in CD-1 mouse at 90 mg/kg, po measured up to 8 hrs by LC-MS/MS analysis; assay type: ADME, organism-based; details: in vivo
[25] = Clast in CD-1 mouse at 90 mg/kg, po measured up to 8 hrs by LC-MS/MS analysis; assay type: ADME, organism-based; details: in vivo, read-out: Clast
[26] = MRTlast in CD-1 mouse at 10 mg/kg, po measured up to 8 hrs by LC-MS/MS analysis; assay type: ADME, organism-based; details: in vivo
[27] = Cmax in CD-1 mouse at 10 mg/kg, po measured up to 8 hrs by LC-MS/MS analysis; assay type: ADME, organism-based; design: route oral, dose 10 mg/kg, time <=8; details: in vivo

T1 sequence (O14842 whole entry): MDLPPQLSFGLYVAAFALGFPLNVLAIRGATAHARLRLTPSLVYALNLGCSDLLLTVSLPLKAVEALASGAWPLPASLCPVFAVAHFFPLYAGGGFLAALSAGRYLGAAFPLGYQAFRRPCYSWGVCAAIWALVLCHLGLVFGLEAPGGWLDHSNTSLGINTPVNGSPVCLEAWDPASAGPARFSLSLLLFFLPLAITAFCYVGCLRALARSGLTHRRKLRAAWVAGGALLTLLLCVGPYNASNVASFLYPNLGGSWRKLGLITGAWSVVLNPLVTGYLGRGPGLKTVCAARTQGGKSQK

Row | EC50 [1] [µM] | AUC(0-t) at 8 h [3] [ng·h/mL] | Tmax [4] [min] | microsomal CLint [6] [µL/min/mg] | EC50 [7] [µM] | Tmax [8] [min] | Activity [9] | half-life [10] [min] | Activity [11] | Activity [12] | AUC(0-t) at 8 h [13] [ng·h/mL] | MRT last at 8 h [14] [h] | half-life [15] [min] | half-life [16] [min] | MRT last at 8 h [17] [h] | Tlast [18] [h] | Compound | Activity (MIN6 [2]) | Activity (STC1) | Activity (Mus musculus) [%] | Activity (MIN6 [19]) | other results
1 | 12.9 | 114000 | 19.8 | 10.5 | 14.8 | 26.4 | inactive | 79.8 | inactive | Active | 33600 | 1.24 | 81.6 | 144 | 2.31 | 8 | Cc1ccc(C)c(-c2cc3cc(CCC(=O)O)ccc3[nH]2)c1 | Non-Toxic | Active | 14.4 | inactive | EC50 ([5]; cho): Not Active; concentration at 8 h [20]: 1250 ng/mL; Emax [21]: 103%; Cmax [22]: 24000 ng/mL; Tmax [23]: 19.8 min; Tlast [24]: 8 h; concentration at 8 h [25]: 2680 ng/mL; MRT last at 8 h [26]: 2.06 h; Cmax [27]: 52900 ng/mL
2 | 0.521 | 4860 | 26.4 | ≤ 4 | > 25 | 26.4 | inactive | 69.6 | inactive | Active | 38700 | 1.34 | 84 | 78 | 1.14 | 8 | Cc1cc(F)ccc1-c1cc2cc(CCC(=O)O)ccc2[nH]1 | Non-Toxic | Active | 22.9 | inactive | EC50 ([5]; read-out: EC50): 56.9 µM; concentration at 8 h [20]: 11 ng/mL; Emax [21]: 111%; Cmax [22]: 28700 ng/mL; Tmax [23]: 33 min; Tlast [24]: 8 h; concentration at 8 h [25]: 63 ng/mL; MRT last at 8 h [26]: 1.23 h; Cmax [27]: 3740 ng/mL
